pIC50: −log10 of the molar value. Structures can show the parent of a compound that is named as a salt.
Tests used:
KRAS21 G-quadruplex DNA = assay: FRET melting assay, KRAS G-quadruplex DNA; assay type: binding; conditions: standard deviation < 0.2°C; for ΔTm (°C) KRAS21 1 μM: 1 μM compound; for ΔTm (°C) KRAS21 2 μM: 2 μM compound
Procedure: (§1) The capacity of compounds 1a-d, 2a-d and the standard G4 ligand TMPyP4 (Fig 1) to bind and stabilize KRAS [26] and HSP90A [27] G4 DNA structures as well as duplex DNA (T-loop) was evaluated by a Fluorescence Resonance Energy Transfer (FRET) melting assay. […] It was observed that the basicity of side chains correlates positively with thermal G4 stabilization of all DNA sequences up to an optimal pKa ~ 8.0–9.0 (Fig 2). Heterocyclic amines at the end of alkyl side chain (1b and 2b) appear to improve binding to G4s and complex stabilization compared to the di-ethylamine group (1a and 2a), which cannot be explained by differences in basicity between terminal groups. […] However, this was not observed for the isomeric pair 1a / 2a.
(§2) All oligonucleotides were purchased from Eurofins MWG Synthesis GmbH, Germany. The labeled oligonucleotides used in the FRET assays had attached the donor fluorophore FAM (6-carboxyfluorescein) and the acceptor fluorophore TAMRA (6-carboxytetramethylrhodamine): KRAS21R (5’-FAM-[…]-TAMRA-3’); HSP90A (5’- [FAM]-[…]-[TAMRA]-3’); T-Loop (5’-FAM-[…]-TAMRA-3’). Each oligonucleotide was initially diluted to a storage solution at 100 μM in nuclease free water (not DEPC-treated), purchased from Ambion Applied Biosystems UK.
(§3) The ability of IQ3A and TMPyP4 to stabilize G-quadruplex and duplex DNA sequences was investigated using a Fluorescence Resonance Energy Transfer (FRET) assay. Stock solution of the oligonucleotides sequences at 20 μM and subsequent dilutions were obtained from storage solutions diluting with K-cacodylate buffer pH = 7.4, containing 60 mM K^+ (10 mM potassium cacodylate, 50 mM KCl). The FRET probe sequences were diluted from stock to the correct concentration (0.4 μM) and then annealed by heating to 95°C for 10 min, followed by cooling to RT. Test compounds were prepared as 1 mM in 10% DMSO and 10% 1mM HCl in HPLC-grade water. The rest of the dilutions were performed using FRET buffer. Annealed DNA (50 μL) and compound solution (50 μL) were distributed across 96-well RT-PCR plates (BioRad; MJ Research, Waltham, MA, USA). Relevant controls were also performed to check for interference with the assay. Fluorescence readings were made on a DNA Engine Opticon (MJ Research) with excitation at 450–495 nm and detection at 515–545 nm, taken at intervals of 0.5°C in the range 30–100°C, with a constant temperature being maintained for 30 s prior to each reading to ensure a stable value. Experiments were performed in triplicate. Final analysis of the data was carried out with GraphPad Prism 5.0 software (GraphPad Software, Inc). The advanced curve-fitting function in GraphPad Prism was used for calculation of ΔT m values and associated standard deviations.

HSP90A G-quadruplex DNA = assay: FRET melting assay, HSP90A G-quadruplex DNA; assay type: binding; conditions: standard deviation < 0.2°C; for ΔTm (°C) HSP90A 1 μM: 1 μM compound; for ΔTm (°C) HSP90A 2 μM: 2 μM compound
Procedure: as §1, §2, §3

T-Loop duplex DNA = assay: FRET melting assay, duplex DNA; assay type: binding; conditions: standard deviation < 0.2°C; for ΔTm (°C) T-Loop 1 μM: 1 μM compound; for ΔTm (°C) T-Loop 2 μM: 2 μM compound
Procedure: as §1, §2, §3

HCT116 cells [1] = assay: MTS short-term cytotoxicity assay (72 h), HCT116; assay type: cell-based, human; conditions: for HCT116 IC65 / pIC50: 72 h, MTS, standard errors ≤ 0.1; for Selective index (SI) = IC50 CCD-18co / IC50 HCT116: CCD18co vs HCT116; for pIC50: Homo sapiens, HCT-116, read-out: HCT116 IC50
Procedure: (§4) The short-term effect of compounds at 72 h on cell growth was studied using colorectal carcinoma cell lines with different KRAS and TP53 genotypes: human colorectal carcinoma HCT116 (mut Kras, wild-type (wt) p53), and human metastatic colorectal adenocarcinoma SW620 (mut Kras, mut p53). In parallel, we also used the immortalized human embryonic kidney cell line HEK293T (wt Kras, wt p53) and normal human colon fibroblast cells CCD18co (wt Kras, wt p53).
(§5) SW620 human colorectal adenocarcinoma cells (European Collection of Cell Cultures, ECACC, Porton Down, Wiltshire, UK), HEK293T human embryonic kidney cells (ATCC, LGC Standards, UK) HCT116 human colon carcinoma cells (ECACC), HCT116 p53(+/+) and p53(−/−) isogenic human colon cancer cells (GRCF Cell Center and Biorepository, the Johns Hopkins University, School of Medicine, Baltimore, MD, USA), were grown in Dulbecco’s modified Eagle’s medium (DMEM) supplemented with 10% fetal bovine serum, and 1% antibiotic/antimycotic (Invitrogen, Grand Island, NY, USA), CCD18co human colon fibroblasts (ATCC, CRL-1459) were grown in Minimum Essential Medium (MEM) supplemented with 10% fetal bovine serum, 1% antibiotic/antimycotic, 2 mM GlutaMAX, 0,1 mM Non-essential amino acids (NEAA) (Invitrogen) and […] Recombinant Human TNF-α (Peprotech, USA) and maintained at 37°C in a humidified atmosphere of 5% CO2.
(§6) Cell viability was evaluated by the tetrazolium dye (MTS) Short-Term Cytotoxicity Assay. […] Following 72 h of compound exposure, cell viability was evaluated using the CellTiter 96 AQueous Non-Radioactive Cell Proliferation Assay (Promega, Madison, WI, USA), using 3-(4,5-dimethylthiazol-2-yl)-5-(3-carboxymethoxyphenyl)-2-(4-sulfophenyl)-2H-tetrazolium, inner salt (MTS) as previously described [35]. Cell viability data were expressed as mean ±SD from at least three independent experiments. IC50 and IC65 values were determined using GaphPad Prism v.5.00 (GraphPad Software). In selected experiments, cell viability was also assessed by trypan blue exclusion assay, and general cell death by LDH activity from cell culture supernatants.

SW620 cells [2] = assay: MTS short-term cytotoxicity assay (72 h), SW620; assay type: cell-based; conditions: for SW620 IC65 / pIC50: 72 h, MTS, standard errors ≤ 0.1; for pIC50: Homo sapiens, SW-620, read-out: SW620 IC50
Procedure: as §4, §5, §6

HEK293T cells = assay: MTS short-term cytotoxicity assay (72 h), HEK293T; assay type: cell-based, human; conditions: MTS; for pIC50: Homo sapiens, HEK-293T, standard errors ≤ 0.1, read-out: HEK293T IC50; for HEK293T IC65: standard errors ≤ 0.1
Procedure: as §4, §5, §6

CCD18co cells = assay: MTS short-term cytotoxicity assay (72 h), CCD18co; assay type: cell-based; conditions: Homo sapiens, CCD-18Co, MTS, standard errors ≤ 0.1, read-out: CCD18co IC50
Procedure: as §4, §5, §6

KRAS mRNA = KRAS mRNA steady-state levels by Taqman Real-time RT-PCR; conditions: IC50 concentrations
HCT116 cells [3] = tested on: HCT116 cells; parameters: method as in PMID 23960016; conditions: HCT116 vs primary rat hepatocytes; cited from earlier work
SW620 cells [4] = assay: Guava ViaCount assay, SW620; assay type: cell-based, human; conditions: SW620, 72 h, IC50 and IC65 concentrations
Description: Subsequently, the Guava ViaCount assay was used to evaluate the effects of IQ3A compounds on cell death induction in cancer (HCT116 and SW620) and non-malignant (HEK293T and CCD18co) cells, compared to 5-FU and TMPyP4 at equitoxic concentrations (IC50 and IC65). Down-regulation of mutant KRAS expression by antisense oligonucleotides in colorectal cancer cells,[8],[30] and by a MAZ-binding oligonucleotide decoy in pancreatic cancer cells has been associated with increased apoptosis and cell growth arrest. Also, anticancer drugs, such as 5-FU and G4 stabilizers of telomeric and oncogene promoter sequences such as TMPyP4, are known to induce a generalized cell response leading to cell growth arrest and cell death by apoptosis (DNA damage response),[32], which involves activation of the pro-apoptotic transcription factor p53 among other pathways in the case of 5-FU [34]. […] The effect of TMPyP4 on SW620 was not studied, as this cell line was not sensitive to this compound up to a 20 μM concentration.
Fig 3 Exposure to IQ3A compounds induces cell death, mainly by apoptosis in HCT116 cells. […] Results are expressed as the mean percentage (%) of viable, mid-apoptotic and dead cells ± SEM, of at least three different experiments, for A. IC50, and for B. IC65 compound concentrations. a, p < 0.05; b, p < 0.01 from DMSO (vehicle control); c, p < 0.05; and d, p < 0.01 from 5-FU. […]

| SMILES | ΔTm (°C) KRAS21 1 μM (KRAS21 G-quadruplex DNA) [°C] | ΔTm (°C) KRAS21 2 μM (KRAS21 G-quadruplex DNA) [°C] | ΔTm (°C) HSP90A 1 μM (HSP90A G-quadruplex DNA) [°C] | ΔTm (°C) HSP90A 2 μM (HSP90A G-quadruplex DNA) [°C] | ΔTm (°C) T-Loop 1 μM (T-Loop duplex DNA) [°C] | ΔTm (°C) T-Loop 2 μM (T-Loop duplex DNA) [°C] | HCT116 IC65 (HCT116 cells [1]) [nM] | Selective index (SI) = IC50 CCD-18co / IC50 HCT116 (HCT116 cells [1]) | pIC50 (HCT116 cells [1]) | SW620 IC65 (SW620 cells [2]) [nM] | pIC50 (SW620 cells [2]) | IC50 fold lower than that of 5-FU (SW620 cells [2]; SW620 cells) [fold] | pIC50 (HEK293T cells) | HEK293T IC65 (HEK293T cells) [nM] | pIC50 (CCD18co cells) | down-regulation of KRAS transcription (mRNA) (KRAS mRNA; HCT116, 72 h) [%] | down-regulation of KRAS transcription (mRNA) (KRAS mRNA; SW620, 72 h) | melting point [°C] | Selective growth inhibition of KRAS mutant HCT116 cells compared to primary rat hepatocytes (HCT116 cells [3]) [fold] | induction of apoptosis / cell death (SW620 cells [4]) |
| --- | --- | --- | --- | --- | --- | --- | --- | --- | --- | --- | --- | --- | --- | --- | --- | --- | --- | --- | --- | --- |
| O=C(OCCCN1CCCCC1)c1ccc2c(c1)c1c(c(=O)c3ccccc3n1CCCN1CCCCC1)n2CCCN1CCCCC1 [2d] | 13 | 22 | 19 | 25 | 4 | 12 | 580 | 5.45 | 6.40 | 450 | 6.55 | ~20 | 6.15 | 1120 | 5.66 | ~40 | not significantly so |  |  |  |
| O=C(OCCN1CCCC1)c1ccc2c(c1)c1nc3ccccc3c(OCCN3CCCC3)c1n2CCN1CCCC1 (as salt: salt) [1b] |  |  |  |  |  |  |  |  |  |  |  |  |  |  |  |  |  | 159 to 164 |  |  |
| O=C(OCCN1CCCC1)c1ccc2c(c1)c1nc3ccccc3c(OCCN3CCCC3)c1n2CCN1CCCC1 [1b] | 5 | 10 | 12 | 16 | <2 | 6 |  |  |  |  |  |  |  |  |  |  |  |  |  |  |
| O=C(OCCN1CCOCC1)c1ccc2c(c1)c1nc3ccccc3c(OCCN3CCOCC3)c1n2CCN1CCOCC1 [1c] | <2 | <2 | 4 | 7 | <2 | <2 |  |  |  |  |  |  |  |  |  |  |  |  |  |  |
| O=C(OCCN1CCCC1)c1ccc2c(c1)c1c(c(=O)c3ccccc3n1CCN1CCCC1)n2CCN1CCCC1 [2b] | 10 | 16 | 14 | 19 | 3 | 6 |  |  |  |  |  |  |  |  |  |  |  |  |  |  |
| O=C(OCCN1CCOCC1)c1ccc2c(c1)c1nc3ccccc3c(OCCN3CCOCC3)c1n2CCN1CCOCC1 (as salt: salt) [1c] |  |  |  |  |  |  |  |  |  |  |  |  |  |  |  |  |  | 141 to 145 |  |  |
| O=C(OCCCN1CCCCC1)c1ccc2c(c1)c1nc3ccccc3c(OCCCN3CCCCC3)c1n2CCCN1CCCCC1 (as salt: salt) [1d] |  |  |  |  |  |  |  |  |  |  |  |  |  |  |  |  |  | 124 to 128 |  |  |
| CCN(CC)CCOC(=O)c1ccc2c(c1)c1c(c(=O)c3ccccc3n1CCN(CC)CC)n2CCN(CC)CC [2a] | 4 | 7 | 11 | 15 | <2 | <2 | 1600 | 5.46 | 6.00 | 1440 | 6.17 |  | 6.17 | 940 | 5.27 | ~40 | not significantly so |  | 100 |  |
| O=c1[nH]cc(F)c(=O)[nH]1 [5-FU, 5-fluorouracil, reference compound] |  |  |  |  |  |  | 4130 | > 42 | 5.62 | 8320 | 5.27 |  | 5.58 | 4130 | < 4.00 |  |  |  |  | able to induce apoptosis in a dose-dependent manner |
| O=C(OCCCN1CCCCC1)c1ccc2c(c1)c1nc3ccccc3c(OCCCN3CCCCC3)c1n2CCCN1CCCCC1 [1d] | 9 | 18 | 15 | 21 | <2 | 10 |  |  |  |  |  |  |  |  |  |  |  |  |  |  |
